In US20050239735A1, “Enhancement of immune responses” (3M Innovative Properties Company, priority 2003, published 2005):

Tests used:
[1] = test system: adherent cells from human PBMC; experiment: TNF-α production by adherent cells from human PBMC, ELISA of supernatants; type: cell-based
Procedure: (§1) The amount of Type I interferon (IFN) and tumor necrosis factor-α (TNF-α) produced by the cells in response to the treatment is also recorded in Table I.
(§2) Briefly, adherent cells from human PBMC were treated with 1-100 U/mL recombinant IFN-α (Lee BioMolecular, San Diego, Calif.) for 24 hours, washed, and then treated with IRM (a concentrated solution of IRM in cell culture medium was added to reach the final concentration indicated in Table I) for an additional 24 hours. A separate group of control cells were treated only with IRM for 24 hours. Cell-free supernatants were then isolated from all of the cultures and analyzed for Type I IFN or TNF-α.
(§3) Type I IFN production was assayed using a virus neutralization bioassay using A549 human lung carcinoma cells challenged with encephalomyocarditis. The details of the bioassay method have been described by G. L. Brennan and L. H. Kronenberg in “Automated Bioassay of Interferons in Micro-test Plates”, Biotechniques, June/July, 78, 1983, incorporated herein by reference. Briefly stated the method is as follows: A549 cells are incubated with dilutions of samples or a standard interferon at 37° C. for 24 hours. The incubated cells are then infected with an inoculum of encephalomyocarditis virus. The infected cells are incubated for an additional 24 hours at 37° C. before evaluating for viral cytopathic effect. The viral cytopathic effect is quantified by staining with crystal violet followed by visual scoring of the plates. Results are expressed as IFN-α reference units/mL based on the value obtained for NIH Human Leukocyte IFN standard. TNF-α production was determined by ELISA (Biosource International, Inc., Camarillo, Calif.).
(§4) Adherent cells are obtained and prepared as described in Example 1. The cells are pre-treated as described in Example 1 with either poly(I:C), recombinant IFN-γ, recombinant IFN-α, or receive no pre-treatment. The cells are washed as described in Example 1, then treated as described in Example 1 with either IRM1, IRM2, IRM3, IRM4, IRM5, IRM6, IRM7, IRM8, or IRM9 for 24 hours.
(§5) Cell free supernatants are isolated from all of the cultures and analyzed for Type I IFN or TNF-α.

[2] = test system: adherent cells from human PBMC; experiment: Type I IFN production by adherent cells from human PBMC, virus neutralization bioassay of supernatants; type: cell-based
Procedure: as §1, §2, §3, §4, §5

[3] = IRM1 0.3 μM for 24 hours after pre-treatment with 1-100 U/mL recombinant IFN-α for 24 hours, washed
[4] = IRM1 0.3 μM for 24 hours, no pre-treatment
[5] = IRM1 3.0 μM for 24 hours after pre-treatment with 1-100 U/mL recombinant IFN-α for 24 hours, washed
[6] = IRM1 3.0 μM for 24 hours, no pre-treatment

Cc1nc2c(N)nc3ccccc3c2n1CC(C)(C)O [IRM1, 4-amino-α,α,2-trimethyl-1H-imidazo[4,5-c]quinoline-1-ethanol]
TNF-α [1, 3]: 114 pg/mL
TNF-α [1, 4]: 437 pg/mL
TNF-α [1, 5]: 284 pg/mL
TNF-α [1, 6]: 3295 pg/mL
IFN-α [2, 3]: 3,788 U/mL
IFN-α [2, 4]: 5 U/mL
IFN-α [2, 5]: 3,788 U/mL
IFN-α [2, 6]: 5 U/mL
